Data: US9049866B2, “Synergistic herbicidal combination of clomazone and pethoxamid” (CHEMINOVA A/S, priority 2008, dated 2015)

Assays:
Assay type in all cases: in vivo
[1] = tested on: Solanum nigrum; assay: Field test in sunflowers, control of Solanum nigrum (Example 1); conditions: sunflower field, spraying, clomazone 90 g/ha, pethoxamid 1200 g/ha, combination 90+1200 g/ha, 55 days after application
From the text: (§1) In the Colby method, also referred to as the Limpels method, the action to be expected E for a given active ingredient combination obeys the so-called Colby formula. According to Colby, the expected action of active ingredients A+B using p+q ppm of active ingredient is:
(§2) [formula] where ppm=milligrams of active ingredient (=a.i.) per liter of spray mixture X=% action by component A using p ppm of active ingredient Y=% action by component B using q ppm of active ingredient. If the ratio R defined as the action actually observed (O) divided by the expected action (E) is >1 then the action of the combination is superadditive, i.e. there is a synergistic effect. […]
(§3) The herbicidal compounds A and B were applied in the formulation in which they are present as commercially available product. Damage by the herbicidal compositions was evaluated with reference to a scale of 0% to 100% in comparison with untreated control plots. […]
(§4) In a field of sunflowers, clomazone (rate of 90 g/ha) and pethoxamid (rate of 1200 g/ha) were applied individually and in combination (90+1200 g/ha) to different plots by spraying. 55 days after application the rate of control of various weeds was recorded. The expected control is calculated according to the Colby method.

[2] = tested on: Echinochloa crus-galli; assay: Field test in sunflowers, control of Echinochloa crus-galli (Example 1); conditions: sunflower field, spraying, clomazone 90 g/ha, pethoxamid 1200 g/ha, combination 90+1200 g/ha, 55 days after application, 0 = no damage, 100 = complete destruction
From the text: as §1, §2, §3, §4

[3] = tested on: Mercurialis annua; assay: Field test in sunflowers, control of Mercurialis annua (Example 2); conditions: sunflower field, spraying, clomazone 90 g/ha, pethoxamid 1200 g/ha, combination 90+1200 g/ha, 50 days after application
From the text: as §1, §2, §3
as §4, with “50” for “55”

[4] = tested on: Viola arvensis; assay: Oilseed rape field test, control of Viola arvensis (Example 3); conditions: spraying, clomazone 72, pethoxamid 1200, combination 72 + 1200 g AI/hectare, 206 days after application
From the text: as §1, §2, §3
In an oilseed rape field, Clomazone, and pethoxamid were applied individually and in combination to different plots by spraying. 206 days after application the rate of control of Viola arvensis was recorded. The expected control is calculated according to the Colby method.

[5] = tested on: Galium aparine; assay: Oilseed rape field test, control of Galium aparine (Example 4); conditions: spraying, clomazone 72, pethoxamid 1200, combination 72 + 1200 g AI/hectare, 64 days after application
From the text: as §1, §2, §3
In an oilseed rape field, Clomazone, and pethoxamid were applied individually and in combination to different plots by spraying. 64 days after application the rate of control of Galium aparine was recorded. The expected control is calculated according to the Colby method.

[6] = tested on: Ambrosia artemisiifolia; assay: Field test in sunflowers, control of Ambrosia artemisiifolia (Example 2); conditions: sunflower field, spraying, clomazone 90 g/ha, pethoxamid 1200 g/ha, combination 90+1200 g/ha, 50 days after application
From the text: as §1, §2, §3
as §4, with “50” for “55”

| Structure (SMILES) | Control observed (O) % [1] | Control observed (O) % [2] | Control observed (O) % [3] | Control observed (O) % [4] | Control observed (O) % [5] | Control observed (O) % [6] |
| --- | --- | --- | --- | --- | --- | --- |
| CC1(C)CON(Cc2ccccc2Cl)C1=O [Clomazone, clomazone] | 37% | 50% | 13% | 0% | 40% | 10% |
| CCOCCN(C(=O)CCl)C(=C(C)C)c1ccccc1 [Pethoxamid, pethoxamid] | 47% | 47% | 27% | 50% | 0% | 10% |
